Source: ChEMBL document CHEMBL4840320, “Taccachatrones A-G, Highly Oxidized Steroids from the Rhizomes of Tacca chantrierii and Their Cytotoxicity Assessment” (J Nat Prod, 2021)
Active and inactive are the calls of the source. The rule behind the calls is not given here.

Columns and labels:
Format in all cases: functional, cell-based
HL-60 = experiment: Cytotoxicity against human HL-60 cells assessed as reduction in cell viability measured after 48 hrs by MTT assay; details: for IC50: HL-60, 48 h
SW480 = experiment: Cytotoxicity against human SW480 cells assessed as reduction in cell viability measured after 48 hrs by MTT assay; details: for IC50: SW480, 48 h
MCF7 = experiment: Cytotoxicity against human MCF7 cells assessed as reduction in cell viability measured after 48 hrs by MTT assay; details: for IC50: MCF7, 48 h
A549 = experiment: Cytotoxicity against human A549 cells assessed as reduction in cell viability measured after 48 hrs by MTT assay; details: for IC50: A549, 48 h

For `CC(=O)O[C@H]1C[C@H]2[C@@H](C(=O)[C@H](O)[C@@]3(O)C[C@@H]4O[C@@H]4[C@H](OC(C)=O)[C@]23C)[C@@H]2C(=O)[C@H]3[C@H](C)[C@@H](O)C[C@@H](C)[C@@H]3[C@@]12C`, the Activity (HL-60) was “inactive”, the Activity (SW480) was “inactive” and the Activity (MCF7) was “inactive”. For the same compound, the Activity (A549) was “inactive”.
`CC(=O)O[C@H]1C(=O)[C@@]2(C)[C@H]([C@H](OC(=O)c3ccccc3)[C@]3(O)C[C@H](OC(=O)[C@H](O)[C@@H](NC(=O)c4ccccc4)c4ccccc4)C(C)=C1C3(C)C)[C@]1(OC(C)=O)CO[C@@H]1C[C@@H]2O` [PACLITAXEL] was tested, and the IC50 (HL-60) was < 0.008 µM, the IC50 (SW480) was < 0.008 µM and the IC50 (MCF7) was < 0.008 µM. The IC50 (A549) was < 0.008 µM.
With `CC(=O)O[C@H]1[C@H]2[C@H]([C@@H]3[C@@H](O)C4=C(C)C(=O)[C@@H](O)[C@@H](C)[C@@H]4[C@@]3(C)[C@H]1OC(C)=O)[C@@H](O)C(=O)[C@H]1C[C@@H]3O[C@@H]3[C@H](OC(C)=O)[C@]21C` the Activity (HL-60) was “inactive”, the Activity (SW480) was “inactive” and the Activity (MCF7) was “inactive”. The Activity (A549) was “inactive”.
For `CC(=O)O[C@H]1C[C@H]2[C@@H](C(=O)[C@H](O)[C@@]3(O)C[C@@H]4O[C@@H]4[C@H](OC(C)=O)[C@]23C)[C@@H]2[C@H](O)[C@@H]3[C@H]([C@H](C)CC(=O)[C@H]3C)[C@]21C`, the Activity (HL-60) was “inactive”, the Activity (SW480) was “inactive” and the Activity (MCF7) was “inactive”. The Activity (A549) was “inactive”.
With `CC(=O)O[C@H]1C[C@H]2[C@H]([C@@H]3[C@@H](O)[C@@H]4[C@H]([C@H](C)C=C5OC(=O)C(C)(O)[C@@]54C)[C@]31C)[C@@H](O)C(=O)[C@H]1C[C@@H]3O[C@H]3[C@H](OC(=O)CC(C)C)[C@@]12C` (stereo partly specified) the IC50 (HL-60) was 1.6 µM, the IC50 (SW480) was > 10 µM and the IC50 (MCF7) was 6.9 µM. The IC50 (A549) was 2.8 µM.
In the case of `CC(=O)O[C@@H]1[C@H]2[C@@H]3[C@@H](OC(C)=O)C(=O)[C@@]4(O)C[C@@H]5O[C@H]5[C@H](OC(=O)CC(C)C)[C@]4(C)[C@H]3C[C@H](OC(C)=O)[C@]2(C)[C@@H]2[C@@H]1[C@]1(C)C(=C[C@H]2C)OC(=O)C1(C)O` (stereo partly specified), the IC50 (HL-60) is reported as > 10 µM, the IC50 (SW480) is reported as > 10 µM and the IC50 (MCF7) is reported as > 10 µM. The IC50 (A549) was 8.3 µM.
In the case of `CC(=O)O[C@H]1C[C@H]2[C@@H]([C@@H]3O[C@@H]3[C@@]3(O)C[C@@H]4O[C@@H]4[C@H](OC(C)=O)[C@]23C)[C@@H]2C[C@H]3[C@H](CO)CC(=O)[C@@H](C)[C@@H]3[C@@]12C`, the Activity (HL-60) is reported as “inactive”, the Activity (SW480) is reported as “inactive” and the Activity (MCF7) is reported as “inactive”. For the same compound, the Activity (A549) was “inactive”.
`CC(=O)O[C@@H]1[C@H]2[C@H]3[C@H]([C@H](O)[C@H](OC(C)=O)[C@]2(C)[C@H]2[C@H](C)[C@H](OC(C)=O)[C@@H]4OC(=O)C(C)(O)[C@]4(C)[C@H]12)[C@]1(C)[C@H](C[C@@H]2O[C@H]2[C@@H]1OC(C)=O)C(=O)[C@@H]3O` (stereo partly specified) was tested, and the IC50 (HL-60) was > 10 µM, the IC50 (SW480) was > 10 µM and the IC50 (MCF7) was > 10 µM. For the same compound, the IC50 (A549) was 7.3 µM.
In the case of `CC(=O)O[C@H]1[C@H]2[C@H]([C@@H]3[C@H]4OC(C)(O)[C@]5(C)[C@H]4[C@H]([C@H](C)C(=O)[C@H]5O)[C@@]3(C)[C@H]1OC(C)=O)[C@@H](OC(C)=O)C(=O)[C@H]1C[C@@H]3O[C@H]3[C@H](OC(C)=O)[C@]21C` (stereo partly specified), the IC50 (HL-60) is reported as > 10 µM, the IC50 (SW480) is reported as > 10 µM and the IC50 (MCF7) is reported as > 10 µM. The IC50 (A549) was 7.5 µM.
